Reference: patent publication US7109333B2, “Heterocyclic compounds” (SmithKline Beecham Corporation, priority 1998, dated 2006)
Where a name gives a salt, the structure may show the parent alone.

Tests used:
c-erbB-2 = molecular target: T1, c-erbB-2 (Homo sapiens, UniProt P04626); assay: Substrate phosphorylation assay, erbB2, assay (b) (SPA, 33P-ATP); format: biochemical; details: Tables 1A and 1B
T1 construct: baculovirus expressed, recombinant constructs of the intracellular domains of c-erbB-2 and c-erbB-4; made in house
T1 sequence (P04626 676-1255 limits assumed): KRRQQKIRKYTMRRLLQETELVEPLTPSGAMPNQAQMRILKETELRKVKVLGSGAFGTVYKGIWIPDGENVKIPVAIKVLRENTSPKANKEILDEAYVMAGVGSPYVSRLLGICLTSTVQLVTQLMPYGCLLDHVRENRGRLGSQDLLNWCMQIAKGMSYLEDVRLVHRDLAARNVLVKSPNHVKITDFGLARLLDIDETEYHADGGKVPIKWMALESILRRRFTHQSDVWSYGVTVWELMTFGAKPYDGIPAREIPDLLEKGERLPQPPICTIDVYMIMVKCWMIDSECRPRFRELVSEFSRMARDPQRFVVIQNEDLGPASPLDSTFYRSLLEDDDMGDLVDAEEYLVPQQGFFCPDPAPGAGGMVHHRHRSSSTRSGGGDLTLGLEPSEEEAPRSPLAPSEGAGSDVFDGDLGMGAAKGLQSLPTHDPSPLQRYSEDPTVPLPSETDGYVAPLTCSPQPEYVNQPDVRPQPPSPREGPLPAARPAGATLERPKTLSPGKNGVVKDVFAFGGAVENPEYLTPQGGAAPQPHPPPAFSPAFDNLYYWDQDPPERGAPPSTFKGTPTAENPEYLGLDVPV
From the text: The substrate phosphorylation assays use baculovirus expressed, recombinant constructs of the intracellular domains of c-erbB-2 and c-erbB-4 that are constitutively active and EGFr isolated from solubilised A431 cell membranes. The method measures the ability of the isolated enzymes to catalyse the transfer of the g-phosphate from ATP onto tyrosine residues in a biotinylated synthetic peptide (Biotin-[…]. Substrate phosphorylation was detected following either of the following two procedures: a.) c-ErbB-2, c-ErbB4 or EGFr were incubated for 30 minutes, at room temperature, with 10 mM MnCl2, 10 mM ATP, 5 mM peptide, and test compound (diluted from a 5 mM stock in DMSO, final DMSO concentration is 2%) in 40 mM HEPES buffer, pH 7.4. The reaction was stopped by the addition of EDTA (final concentration 0.15 mM) and a sample was transferred to a streptavidin-coated 96-well plate. The plate was washed and the level of phosphotyrosine on the peptide was determined using a Europium-labelled antiphosphotyrosine antibody and quantified with a time-resolved fluorescence technique. b.) ErbB2 was incubated for 50 minutes at room temperature with 15 mM MnCl2, 2 mM ATP, 0.25 mCi [γ-^33P] ATP/well, 5 mM peptide substrate, and test compound (diluted from a 10 mM stock in DMSO, final DMSO concentration is 2%) in 50 mM MOPS pH 7.2. The reaction was terminated by the addition of […] of PBS containing 2.5 mg/ml streptavidin-coated SPA beads (Amersham Inc.), 50 mM ATP, 10 mM EDTA and 0.1% TX-100. The microtitre plates were sealed and SPA beads were allowed to settle for at least six hours. The SPA signal was measured using a Packard Topcount 96-well plate scintillation counter (Packard Instrument Co., Meriden, Conn.).

[1] = tested on: HB4a c5.2 (HB4a transfected with human c-erbB2 cDNA); assay: Methylene blue growth inhibition assay, HB4a erbB2; format: cell-based; details: 72 h, HB4a c5.2, 3 days, read-out: Cell Proliferation HB4a erbB2, IC50
Procedure: (§1) Human breast (BT474), head and neck (HN5) and gastric tumor (N87) cell lines were cultured in low glucose DMEM (Life Technologies 12320–032) containing 10% fetal bovine serum (FBS) at 37° C. in a humidified 10% CO2, 90% air incubator. The SV40 transformed human mammary epithelial cell line HB4a was transfected with either human H-ras cDNA (HB4a r4.2) or the human c-erbB2 cDNA (HB4a c5.2). The HB4a clones were cultured in RPMI containing 10% FBS, insulin (5 μg/ml), hydrocortisone (5 μg/ml), supplemented with the selection agent hygromycin B (50 μg/ml). Cells were harvested using trypsin/EDTA, counted using a haemocytometer, and plated in […] of the appropriate media, at the following densities, in a 96-well tissue culture plate (Falcon 3075): BT474 10,000 cells/well, HN5 3,000 cells/well, N87 10,000 cells/well, HB4a c5.2 3,000 cells/well, HB4a r4.2 3,000 cells/well. The next day, compounds were diluted in DMEM containing […] gentamicin, at twice the final required concentration, from 10 mM stock solutions in DMSO. […] of these dilutions were added to the […] of media currently on the cell plates. Medium containing 0.6% DMSO was added to control wells. Compounds diluted in DMEM were added to all cell lines, including the HB4a r4.2 and HB4a c5.2 cell lines. The final concentration of DMSO in all wells was 0.3%. Cells were incubated at 37° C., 10% CO2 for 3 days. Medium was removed by aspiration. Cell biomass was estimated by staining cells with 100 μl per well methylene blue (Sigma M9140, 0.5% in 50:50 ethanol:water), and incubation at room temperature for at least 30 minutes. Stain was removed, and the plates rinsed under a gentle stream of water, and air-dried. To release stain from the cells 100 μl of solubilization solution was added (1% N-lauroyl sarcosine, Sodium salt, Sigma L5125, in PBS), and plates were shaken gently for about 30 minutes. Optical density at 620 nm was measured on a microplate reader. Percent inhibition of cell growth was calculated relative to vehicle treated control wells. Concentration of compound that inhibits 50% of cell growth (IC50) was interpolated using nonlinear regression (Levenberg-Marquardt) and the equation, y=Vmax*(1−(x/(K+x)))+Y2, where “K” was equal to the IC50.

[2] = tested on: HB4a r4.2 (HB4a transfected with human H-ras cDNA); assay: Methylene blue growth inhibition assay, HB4a ras; format: cell-based; details: 72 h, HB4a r4.2, 3 days, read-out: Cell Proliferation HB4a ras, IC50
Procedure: as §1

[3] = tested on: BT474 breast tumor cell line; assay: Methylene blue growth inhibition assay, BT474; format: cell-based; details: Homo sapiens, BT-474, 72 h; BT474, 3 days; read-out: Cell Proliferation BT474, IC50
Procedure: as §1

[4] = tested on: HN5 head and neck tumor cell line; assay: Methylene blue growth inhibition assay, HN5; format: cell-based; details: Homo sapiens, 72 h; HN5, 3 days; read-out: Cell Proliferation HN5, IC50
Procedure: as §1

[5] = tested on: N87 gastric tumor cell line; assay: Methylene blue growth inhibition assay, N87; format: cell-based; details: Homo sapiens, 72 h; N87, 3 days; read-out: Cell Proliferation N87, IC50
Procedure: as §1

Structure (SMILES) | IC50 (c-erbB-2) | IC50 [3] | IC50 [4] | IC50 [5] | IC50 [1] | IC50 [2]
COc1cc(Nc2ncnc3ccc(-c4ccc(CNCCS(C)(=O)=O)o4)cc23)ccc1OCc1cccc(F)c1 [Example 9, N-{4-[(3-fluorobenzyl)oxy]-3-methoxyphenyl}-6-[5-({[2-(methanesulphonyl)ethyl]amino}methyl)-2-furyl]-4-quinazolinamine] |  | < 5 µM | < 5 µM | < 5 µM | < 5 µM | 5 to 25 µM
COc1cc(Nc2ncnc3ccc(-c4csc(CNCCS(C)(=O)=O)n4)cc23)ccc1OCc1cccc(F)c1 [Example 12, N-{4-[(3-fluorobenzyl)oxy]-3-methoxyphenyl}-6-[2-({[2-(methanesulphonyl)ethyl]amino}methyl)-1,3-thiazol-4-yl]-4-quinazolinamine] | 0.1 to 1 µM | < 5 µM | 5 to 25 µM | < 5 µM | < 5 µM | > 50 µM
CS(=O)(=O)CCNCc1nc(-c2ccc3ncnc(Nc4ccc(OCc5cccc(Br)c5)cc4)c3c2)cs1 [Example 13, N-{4-[(3-bromobenzyl)oxy]phenyl}-6-[2-({[2-(methanesulphonyl)ethyl]amino}methyl)-1,3-thiazol-4-yl]-4-quinazolinamine] | 0.1 to 1 µM | 5 to 25 µM | 25 to 50 µM | 5 to 25 µM | 5 to 25 µM | > 50 µM
CS(=O)(=O)CCNCc1nc(-c2ccc3ncnc(Nc4ccc(OCc5cccc(F)c5)cc4)c3c2)cs1 [Example 14, N-{4-[(3-fluorobenzyl)oxy]phenyl}-6-[2-({[2-(methanesulphonyl)ethyl]amino}methyl)-1,3-thiazol-4-yl]-4-quinazolinamine] | < 0.1 µM | < 5 µM | < 5 µM | < 5 µM | < 5 µM | > 50 µM
CS(=O)(=O)CCNCc1ccc(-c2ccc3ncnc(Nc4ccc(OCc5cccc(F)c5)c(Cl)c4)c3c2)o1 [Example 29, N-{3-Chloro-4-[(3-fluorobenzyl)oxy]phenyl}-6-[5-({[2-(methanesulphonyl)ethyl]amino}methyl)-2-furyl]-4-quinazolinamine] |  | < 5 µM | < 5 µM | < 5 µM | < 5 µM | > 50 µM

Second part, led by results:

IC50 (c-erbB-2) | IC50 [3] | IC50 [4] | IC50 [5] | Structure (SMILES) | IC50 [1] | IC50 [2]
0.1 to 1 µM | < 5 µM | < 5 µM | < 5 µM | CS(=O)(=O)CCNCc1coc(-c2cc3c(Nc4ccc(OCc5cccc(F)c5)cc4)ncnc3cn2)c1 [Example 6, (4-(3-Fluorobenzyloxy)-phenyl)-(6-(4-((2-methanesulphonyl-ethylamino)-methyl)-furan-2-yl)-pyrido[3,4-d]pyrimidin-4-yl)-amine dihydrochloride] | < 5 µM | 25 to 50 µM
< 0.1 µM | < 5 µM | < 5 µM | < 5 µM | CS(=O)(=O)CCNCc1ccc(-c2ccc3ncnc(Nc4ccc(OCc5cccc(F)c5)cc4)c3c2)o1 [Example 8, N-{4-[(3-fluorobenzyl)oxy]phenyl}-6-[5-({[2-(methanesulphonyl)ethyl]amino}methyl)-2-furyl]-4-quinazolinamine] | < 5 µM | 5 to 25 µM
< 0.1 µM | < 5 µM | < 5 µM | < 5 µM | COc1cc2ncnc(Nc3ccc(OCc4ccccc4)cc3)c2cc1-c1ccc(CNCCS(C)(=O)=O)o1 [Example 10] | < 5 µM | 5 to 25 µM
< 0.1 µM | < 5 µM | < 5 µM | < 5 µM | CS(=O)(=O)CCNCc1coc(-c2ccc3ncnc(Nc4ccc(OCc5ccccc5)cc4)c3c2)c1 [Example 11, N-[4-(benzyloxy)phenyl]-6-[4-({[2-(methanesulphonyl)ethyl]amino}methyl)-2-furyl]-4-quinazolinamine] | < 5 µM | > 50 µM
